Legend:
[1] = system: γ-globin promoter activity in KU812-γF/βR stable lines; test: KU812 dual-luciferase reporter stable lines (μLCRβprRluc AγprFluc), γ-globin promoter activity; assay type: cell-based, human; conditions: 48 hr; for Fold change (γ/γ + 2β): untreated normalized to one
Description: KU812 stable cell lines were created by co-transfecting wild-type KU812 cells with pEGFP-NI (G418 selectable marker) and theμLCRβ prRluc ^A γ prFluc dual-reporter a kind gifts from Dr. George Stamatoyannopoulos (University of Washington). […] Likewise, 1.4 kb of human Aγ-globin promoter was inserted upstream of firefly luciferase to create ^A γ prFluc. The μLCR (locus control region), Pβ prRluc, and ^A γ prFluc fragments were subsequently cloned into the mammalian vector, pRL-null.
After 72 hr, G418 was added at a concentration of […] for 3 days then maintained under selection pressure indefinitely at a concentration of […]. KU812 stable lines were treated with the various drugs at the same concentrations described above. FK228 and analogues were screened at concentrations between 1–1000 nM for 48 hr and cell toxicity was monitored by 2% Trypan blue exclusion. The effect of drug treatments on γ-globin and β-globin promoter activity was monitored by luciferase assay.
Luciferase activity was monitored under the different experimental conditions using the Dual Luciferase Assay Reporter System (Promega, Madison, WI). The activity of firefly luciferase represents γ-globin promoter activity (γF), while the renilla luciferase is the read-out for β-globin promoter activity (βR). The β-globin promoter was strategically cloned between the LCR and γ-globin promoter to increase β expression, while simultaneously increasing the sensitivity of detection of γ-globin gene inducers.
After drug treatments, KU812 stable cells were washed with 1X phosphate buffered saline and lysed in 1X Passive Lysis Buffer for 15 min, then protein extracts were added to the Luciferase Assay Reagent II and firefly luciferase activity quantified in a Turner Designs TD-20/20 luminometer (Sunnyvale, CA). To measure βR activity, Stop & Glo Reagents was added to measure the renilla luciferase activity. Total protein was determined by Bradford assay on a Beckman DU 640 spectrophotometer (Chaska, MN) and luciferase activity was corrected for total protein.
Subsequently, three independent dual-luciferase reporter KU812 stable cell lines were established to analyze the ability FK228 analogues to induce γ-globin promoter activity without an effect on β-globin transcription. […] Since the firefly luciferase gene (γF) has approximately […] luminescence than the renilla gene (βR), the renilla activity was multiplied by two to adjust for the difference in luminescence yielding the γ/γ+2β final measurement. The FK228 analogues were examined at concentrations ranging from 1–1000 nM in the three stable lines. After 48-hour treatments, cells were harvested and protein isolated for luciferase activity using the Dual Luciferase Reporter Assay.

[2] = system: γ-globin transcription in primary erythroid progenitors; test: RT-qPCR of γ-globin mRNA in primary erythroid progenitors (two-phase liquid culture); assay type: cell-based, human; conditions: Day 11 erythroid progenitors treated 48 hr (Figure 3 legend), untreated normalized to one
Description: (§1) The two-phase liquid culture system was established as previously published by Fibach et al. using buffy coat mononuclear cells, purchased from Carter Blood Care (Fort Worth, TX) in accordance with the guidelines of the Institutional Review Board at the University of Texas at Dallas. During phase 1, cells were grown in IMDM medium with 30% fetal bovine serum and 50 ng/mL each of the granulocyte-monocyte colony-stimulating factor, Interleukin-3, and stem cell factor. Subsequently, phase 2 was initiated on day 7 with the addition of erythropoietin (2 U/mL) and stem cell factor (50 ng/mL). The cells were treated on Day 11 with the different test compounds and harvested on Day 14 (72 hr incubation).
Total RNA was isolated from samples using RNA Stat-60 (TEL-TEST “B” Inc., Friendswood, TX) and used for RT-qPCR analysis as previously published. […] The globin mRNA levels were calculated as a ratio of GAPDH (γ/GAPDH, β/GAPDH), and the γ/β-globin mRNA ratio was calculated by dividing γ/GAPDH by β/GAPDH.
Figure 3 JMA33 and JMA26 induce HbF in primary erythroid cells. (a) Day 11 erythroid progenitors were treated for 48 hr with the controls agents and the FK228 analogues shown and then analyzed by RT-qPCR. […] Data were calculated as the means ± SEM. […] The images generated were used to count 500 DAPI positive cells and the %FITC positive cells were calculated accordingly.

[3] = system: HbF-positive primary erythroid progenitors; test: Anti-HbF FITC immunostaining of primary erythroid progenitors; assay type: cell-based, human; conditions: anti-HbF FITC / DAPI, 500 cells counted; 15.5% HbF-positive at baseline in untreated cells
Description: as §1
Primary erythroid progenitor cytospin cell preparations were fixed with 4% paraformaldehyde in phosphate buffered saline for 15 min, washed, and then permeabilized with 0.3% Trition-100 solution for 10 min. Cells were then blocked in a 5% bovine serum albumin solution and immunostaining performed at 4°C overnight with anti-HbF fluorescein isothiocyanate (FITC) conjugated antibody (Bethyl Laboratories Inc., TX). Cell nuclei were stained with mounting medium containing 4′,6-diamidino-2-phenylindole (DAPI; Santa Cruz Biotechnology, CA). Primary cells were photographed with an Olympus BX 51 phase contrast epifluorescent microscope equipped with Hoffman Modulation optics. Phase-contrast images were recorded with a CCD camera (1/100 sec exposure) and fluorescence images were photographed through 485/520 nm emission filter. The percent of HbF positive cells was calculated by dividing the number of FITC positive cells by total cells (DAPI positive).
Figure 3 JMA33 and JMA26 induce HbF in primary erythroid cells. (a) Day 11 erythroid progenitors were treated for 48 hr with the controls agents and the FK228 analogues shown and then analyzed by RT-qPCR. Untreated cells (UT) were used as a control and normalized to one. Data were calculated as the means ± SEM. […] The images generated were used to count 500 DAPI positive cells and the %FITC positive cells were calculated accordingly.

[4] = system: HbF levels in primary erythroid cells; test: HbF ELISA in primary erythroid cells; assay type: cell-based, human; conditions: for Fold change in HbF levels: relative to untreated = 1, concentrations as in E7; for Fetal hemoglobin quantification, Mean (HbF/total Hb/total protein): treated Day 11, harvested Day 14, conc: Cys 10 mM, Hemin 50 μM, SAHA 2000 nM, FK228 1.5 nM, JMA1 1.5 nM, JMA2 1.0 nM, JMA26 500 nM, JMA33 1000 nM, untreated 0.683
Description: as §1
Total hemoglobin was quantified using 20 μL of protein extract from one million KU812 cells mixed with 5 mL of Drabkin's reagent (Sigma); then cyanmethemoglobin was measured at the 540 nm wavelength. HbF levels were quantified using the human Hemoglobin F ELISA Quantitation Kit (Bethyl Laboratory, Montgomery, TX). Briefly, 96-well plates were coated with sheep anti-human HbF antibody (1 mg/mL). After blocking with 1% bovine serum albumin, horse radish peroxidase-conjugated secondary antibody (1 mg/mL) was added. Raw data were analyzed using GraphPad PRISM (GraphPad Software, Inc., La Jolla, CA) and HbF levels were calculated as a ratio of total hemoglobin corrected for total protein (HbF/total Hb/total protein).

[5] = system: γ-globin gene transcription in KU812 cells; test: RT-qPCR of γ/β-globin mRNA in wild type KU812 cells; assay type: cell-based, human; conditions: 48 hr, Hem 50 μM, NaB 2 mM, SAHA 2 μM, FK228 1.5 nM, Cys 10 mM, untreated normalized to one, range over the drugs
Description: Human KU812 leukemia cells were grown in Iscove's Modified Dulbecco's medium (IMDM) (Invitrogen, Carlsbad, CA) with 10% fetal bovine serum (Atlanta Biologicals, Atlanta, GA), penicillin (100 U/mL), and streptomycin (0.1 mg/mL). The cells were incubated at 37°C with 5% CO2. Cell count and viability were determined using a hemocytometer and 2% Trypan blue exclusion. Inductions were performed with one million cells treated for 48 hr with the following drugs purchased from Sigma (St Louis, MO): 50 μM Hem (hemin), 2 mM NaB (sodium buytrate), 0.5 μM TSA, 10 mM Cys (cysteine), 1.5 nM FK228, and 100 μM HU (hydroxyurea). […] Inc. (Whitehouse Station, NJ).
Total RNA was isolated from samples using RNA Stat-60 (TEL-TEST “B” Inc., Friendswood, TX) and used for RT-qPCR analysis as previously published. […] The globin mRNA levels were calculated as a ratio of GAPDH (γ/GAPDH, β/GAPDH), and the γ/β-globin mRNA ratio was calculated by dividing γ/GAPDH by β/GAPDH. […]
Figure 2 Known HbF inducers activate γ-globin expression in KU812 cells. […] Cells were treated for 48 hr with the different drug inducers and γ-globin and β-globin gene transcription were measured by RT-qPCR (see Section 2). […] Data were calculated as the means ± standard error of the mean (SEM); *P < 0.05 and **P < 0.01. […]

[6] = system: HDAC activity in HeLa cells; test: HDAC Fluorescent Activity Assay (Fluor de Lys) in HeLa cells; assay type: cell-based, human; conditions: TSA 0.5 to 1000 nM; HeLa cells, Fluor de Lys substrate, fluorescence 440 nm
Description: The HDAC Fluorescent Activity Assay (Enzo Life Science, Farmingdale, NY) was used to measure HDAC inhibition in HeLa cells in a 96-well format using Trichostatin A as the positive control per the manufacturer's protocol. This assay is based on the Fluor de Lys (Fluorogenic Histone Deacetylase Lysyl (FDL)) Substrate/Developer. The procedure was as follows: the test compounds FK228, JMA26, and JMA33 were added to HeLa cells along with the FDL substrate to allow intracellular drug activation then fluorescence levels were read on the fluorometer at 440 nm (CytoFluor II, PerSeptive Biosystems, Farmingdale, NY). The drug concentrations tested were based on the amount required for HbF induction in primary cells. Data was reported as the mean ± standard deviation (SD) for at least five replicates.
To ascertain the mechanism of HbF induction by the lead compounds, we performed an in vivo assay to investigate the ability of JMA26 and JMA33 to act as HDAC inhibitors. The HDAC Fluorescent Activity Assay designed to measure HDAC activity in HeLa cells was completed in a 96-well format. The assay is based on the fact that the Fluor de Lys substrate is deacetylated by HDACs to generate a fluorescent readout. TSA (0.5 to 1000 nM) was used to establish the assay in HeLa cells, showing about 80% HDAC inhibition in our system (Figure 4(a)).
Figure 4 HDAC inhibition assay. The HDAC Fluorescent Activity Assay was used to measure HDAC inhibition in HeLa cells (See Section 2). Compounds and FDL substrate were added to HeLa cells to allow drug activation in vivo then fluorescence levels were quantified on the fluorometer at 440 nm. (a) Trichostatin A (TSA) was used as the control. (b) Inhibition studies were conducted for FK228 showing maximal HDAC inhibition at the 300 nM concentration. (c) Similar studies were performed for JMA33 and JMA26. The data are reported as the means ± SEM.

[7] = system: sickle-cell patients; conditions: sickle cell patients treated with hydroxyurea; cited from earlier work
Description: Several classes of pharmacological compounds that reactivate γ-globin gene transcription have been identified. They include cytotoxic agents, DNA methyl transferase, and histone deacetylase (HDAC) inhibitors. Cytotoxic compounds terminate actively cycling progenitors and perturb cellular growth to trigger rapid erythroid regeneration and γ-globin gene activation. S-stage cytotoxic drugs, such as cytosine arabinoside, myleran, vinblastine, and hydroxyurea, induce HbF production in primates and humans. The Multicenter Study of Hydroxyurea established ...

[8] = Line 1, firefly (γ) / renilla (β) luciferase corrected for total protein, mean, conc: Cys 10 mM, Hemin 50 μM, SAHA 2000 nM, FK228 1.5 nM, 1127Ox 1000 nM, JMA1 1.5 nM, JMA2 1.0 nM, JMA12 1000 nM, JMA26 500 nM, JMA33 1000 nM, JMA112 100 nM, untreated 0.0402
[9] = Line 1, concentrations as in E1
[10] = Line 2, concentrations as in E1, untreated 0.1573
[11] = Line 2, concentrations as in E1
[12] = Line 3, concentrations as in E1, untreated 0.0721
[13] = Line 3, concentrations as in E1

Q: For `O=C(CCCCCCC(=O)Nc1ccccc1)NO` [SAHA, suberoylanilide hydroxamic acid], which “γ/γ + 2β Mean” value [1, 8] is on record?
A: 0.2157

Q: And the “Fold change (γ/γ + 2β)” value [1, 9]?
A: 5.400

Q: And the “γ/γ + 2β Mean” value [1, 10]?
A: 0.6500

Q: And the “Fold change (γ/γ + 2β)” value [1, 11]?
A: 4.140

Q: And the “γ/γ + 2β Mean” value [1, 12]?
A: 0.2520

Q: And the “Fold change (γ/γ + 2β)” value [1, 13]?
A: 3.500

Q: What about the “induction of γ-globin transcription at the mRNA level” value [2] of the same compound?
A: ≤ 3.2 fold

Q: What about the “increase in HbF-positive cells” value [3] of the same compound?
A: 3.2 fold

Q: And the “Fold change in HbF levels” value [4]?
A: 1.602 fold

Q: And the “Fetal hemoglobin quantification, Mean (HbF/total Hb/total protein)” value [4]?
A: 1.094

Q: Which “γ/γ + 2β Mean” value [1, 8] does the source give for `N[C@@H](CS)C(=O)O` [Cys, cysteine] here?
A: 0.0388

Q: And the “Fold change (γ/γ + 2β)” value [1, 9]?
A: 0.950

Q: And the “γ/γ + 2β Mean” value [1, 10]?
A: 0.1200

Q: And the “Fold change (γ/γ + 2β)” value [1, 11]?
A: 0.764

Q: What about the “γ/γ + 2β Mean” value [1, 12] of the same compound?
A: 0.0860

Q: What about the “Fold change (γ/γ + 2β)” value [1, 13] of the same compound?
A: 1.194

Q: And the “increase in the γ/β-globin mRNA levels” value [5]?
A: not induced

Q: What about the “Fold change in HbF levels” value [4] of the same compound?
A: 1.079 fold

Q: And the “Fetal hemoglobin quantification, Mean (HbF/total Hb/total protein)” value [4]?
A: 0.737

Q: With `CC(/C=C/C(=O)NO)=C\[C@@H](C)C(=O)c1ccc(N(C)C)cc1` [TSA, Trichostatin A] as the compound, how does the HDAC inhibition [6] read?
A: about 80%

Q: Which results are given for hemin?
A: γ/γ + 2β Mean [1, 8]: 0.1732; Fold change (γ/γ + 2β) [1, 9]: 4.325; γ/γ + 2β Mean [1, 10]: 0.6593; Fold change (γ/γ + 2β) [1, 11]: 4.261; γ/γ + 2β Mean [1, 12]: 0.2508; Fold change (γ/γ + 2β) [1, 13]: 3.486; increase in HbF-positive cells [3]: 3.0 fold; Fold change in HbF levels [4]: 2.218 fold; Fetal hemoglobin quantification, Mean (HbF/total Hb/total protein) [4]: 1.515

Q: For `NC(=O)NO` [hydroxyurea], which non-response rate [7] is on record?
A: 30%

— paper PMC3359661, “FK228 Analogues Induce Fetal Hemoglobin in Human Erythroid Progenitors” (Anemia, 2012)
